From patent US9084765B2, “Use of amisulpride as an anti-emetic” (Acacia Pharma Limited, priority 2010, dated 2015)
“Also recorded” adds a separate entry of the source.

Columns and labels:
[1] = reported in the UKPAR (Special Warnings and Precautions for Use); cited from earlier work
[2] = test system: ferrets challenged with apomorphine; test: Apomorphine-induced emesis in ferrets; format: in vivo, ferret; details: 2 hour observation
Method: (§1) Amisulpride, white powder, was dissolved in dimethylsulfoxide and then diluted in physiological saline. For vehicle control, physiological saline was used for s,c, administration (apomorphine experiments) and 8.3% DMSO in physiological saline was used for i.v. administration (morphine, cisplatin). Apomorphine hydrochloride hemihydrates, white powder, was dissolved in physiological saline. The method used to test antiemetic activity preclinically follows that described by Gardner et al. (Brit. J. Pharmacol., 116: 3158-3163, 1995) and uses ferrets. Sixty minutes before administration of the test substance, ferrets are placed in individual stainless steel cages (40×50×34 cm) with a grid floor. Then, the animals are challenged with apomorphine (0.25 mg/kg s.c.), morphine (0.4 mg/kg i.p.) or cisplatin (10 mg/kg i.p.) and immediately observed over at least a 2-hour period. Parameters recorded include: number of ferrets showing retches and vomits; latency to first retching; latency to first vomiting; number of retches; vomiting (number of vomits); number of emesis periods and mean duration of emesis periods. Retching is defined as a rhythmic respiratory movement against a closed glottis, while vomiting is defined as a forced expulsion of upper gastrointestinal contents. […]

[3] = test system: apomorphine-induced vomiting in the dog; details: reported in U.S. Pat. No. 4,294,828; cited from earlier work
[4] = test system: ferrets challenged with morphine; test: Morphine-induced emesis in ferrets; format: in vivo, ferret
Method: as §1, with “Morphine hydrochloride,” for “Apomorphine hydrochloride hemihydrates,”

[5] = test system: ferrets challenged with cisplatin; test: Cisplatin-induced emesis in ferrets; format: in vivo, ferret
Method: Amisulpride, white powder, was dissolved in dimethylsulfoxide and then diluted in physiological saline. For vehicle control, physiological saline was used for s,c, administration (apomorphine experiments) and 8.3% DMSO in physiological saline was used for i.v. administration (morphine, cisplatin). […] Cisplatinum II diamine dichloride, yellow powder, was dispersed in 0.2% hydroxymethylcellulose in physiological saline. The method used to test antiemetic activity preclinically follows that described by Gardner et al. (Brit. J. Pharmacol., 116: 3158-3163, 1995) and uses ferrets. Sixty minutes before administration of the test substance, ferrets are placed in individual stainless steel cages (40×50×34 cm) with a grid floor. Then, the animals are challenged with apomorphine (0.25 mg/kg s.c.), morphine (0.4 mg/kg i.p.) or cisplatin (10 mg/kg i.p.) and immediately observed over at least a 2-hour period. Parameters recorded include: number of ferrets showing retches and vomits; latency to first retching; latency to first vomiting; number of retches; vomiting (number of vomits); number of emesis periods and mean duration of emesis periods. Retching is defined as a rhythmic respiratory movement against a closed glottis, while vomiting is defined as a forced expulsion of upper gastrointestinal contents. […]

For `CCN1CCCC1CNC(=O)c1cc(S(=O)(=O)CC)c(N)cc1OC` (centres unmarked) [Amisulpride], the “prolongation of the QT interval” value [1] is given as “induces a dose dependent prolongation of the QT interval”, the “effect on apomorphine emesis” value ([2]; amisulpride 10 μg/kg s.c.) is given as “totally inhibited” and the “effect on apomorphine emesis” value ([2]; amisulpride 100 μg/kg s.c.) is given as “totally inhibited”. The apomorphine-induced vomiting [3] was “inhibit apomorphine-induced vomiting in the dog”, the incidence of vomits ([4]; amisulpride 3 mg/kg i.v. before morphine 0.4 mg/kg i.p.) was “abolished” and the “effect on emetic effects induced by morphine” value ([4]; i.v. 5 minutes before morphine, 2 hour observation, versus vehicle control) was “reduces the emetic effects induced by morphine, in dose-dependent manner”. For the same compound, the “efficacy compared with droperidol” value ([5]; amisulpride 0.6 mg/kg (one animal excluded) and 2 mg/kg versus droperidol 3 mg/kg given 5 minutes before cisplatin) was “better than droperidol at 3 mg/kg; also recorded: more effective than droperidol at 3 mg/kg” and the “effect on emetic effects of cisplatin” value ([5]; i.v. before cisplatin, 72 hour period, versus vehicle control) was “reduces the emetic effects of cisplatin, in dose-dependent manner”.
